Test results published in US20020111314A1, “Novel stimulation of gene expression and protein synthesis of heat shock protein 72/73 (Hsp 70)” (The Trustees of Columbia University, priority 1995, published 2002).
Entries after “also recorded” stand apart in the source; their conditions may differ. Square brackets hold non-standard residues; d marks the D form. Peptide text beside a SMILES is read from it. Nle = CCCC[C@H](N)C(=O)O

Assays:
hsp70, i.e. hsp72, mRNA = assay: Northern blot of hsp70 (hsp72) mRNA in HepG2 cells; assay type: cell-based, human; settings: ALLN 40 μg/ml, 4 hours at 37° C.
Procedure: After 4 hours treatment at 37° C., cells were harvested. (B). […] The total RNA was prepared, and equal amounts of the samples were loaded and run on a 1% formaldehyde-agarose gel, blotted onto a nylon membrane, and subsequently hybridized with specific synthetic oligonucleotide probes for hsp70 mRNA as described under Experimental Details. The position of 28S and 18S rRNA are shown for reference.
Equal amounts of tRNA samples (10 μg) were size-fractionated on a 1% agarose-formaldehyde gel according to the methods described (Maniatis, et al., 1982) and transferred to a piece of QIAGEN plus nylon membrane. To determine loading and transfer efficiency, RNA was stained with ethidium bromide before and after transfer. The membrane was baked for 30 min. at 80° C. in vacuo (a vacuum) followed by UV cross-linking. It was then incubated for 4 hours at 65° C. in a prehybridization mixture containing 10% dextran sulfate, 1% SDS, 1M sodium chloride, 50 mM Tris-HCl (pH 7.5) and 100 μg/ml denatured salmon sperm DNA. […] The membrane was then washed four times with 2×SSC, 0.1% SDS at room temperature, one time at 65° C. for 30 min., and one time at room temperature again for 5 min., and finally rinsed with 2×SSC at room temperature.

proteasomes = settings: Rock, et al., 1994; cited from earlier work
[1] = test system: Hsp90, Hsp60, Hsp25, Hsp27, Hsp86, Hsp104, Bip and albumin; assay: Biosynthesis of other Hsp family members and related proteins in HepG2 cells (SDS-PAGE, immunoprecipitation); assay type: cell-based, human
Procedure: FIGS. 2A-2B: Effects of ALLN on Hsp25, Hsp60, Hsp90 and Bip biosynthesis. HepG2 cells were pre-treated and radiolabeled with/without ALLN for 4 hours as described in FIG. 1. Cell lysates were denatured and aliquoted for immunoprecipitation with anti-Hsp25, anti-Hsp60, anti-Hsp90, or anti-Bip antibodies respectively (1 μg/ml). Because the anti-Hsp90 antibody is of rat source, rabbit anti-rat IgG antibody was added after the first incubation and the incubation was extended for another 1 hour at 4° C. before collection with protein A-Sepharose. Immunoprecipitates were aliquoted for scintillation counting and plotted. Each value is presented as means±SD from three individual experiments.
FIGS. 7A-7B: Effects of ALLN on the biosynthesis of other members of Hsp family and related proteins. HepG2cells were pre-treated and radiolabeled with or without ALLN for 4 hours as described in FIG. 1. […]
HepG2 cells were preincubated for 4 hours in serum-free MEM and then radiolabeled with ^3H-Leucine (150 μCi/ml) in a serum-free, leucine-free medium. […] Cell lysates containing equal amounts of trichloroacetic acid (TCA)-insoluble radioactivity were used for immunoprecipitations by incubating with individual monoclonal antibody (1 μg/ml) for 2.5 hours at 4° C. […]

CCCC[C@@H](C=O)NC(=O)[C@H](CC(C)C)NC(=O)[C@H](CC(C)C)NC(C)=O [ALLN, N-acetyl-leucyl-leucyl-norleucinal] (Ac-Leu-Leu-[Nle]-aldehyde)
amount of hsp70, i.e. hsp72, mRNA (hsp70, i.e. hsp72, mRNA): increased dramatically
inhibition of proteasomes (proteasomes): potent inhibitors
effect on Hsp90, Hsp60, Hsp25, Hsp27, Hsp86, Hsp104, Bip or albumin levels ([1]; ALLN 4 hours): no effects; also recorded: only Hsp70 was induced
level of a protein of about 80-90 kDa (whole-cell protein pattern, FIG. 2A) ([1]; ALLN-treated vs control): also increased but not as significantly as Hsp70
